In PubChem BioAssay (NCI):
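Growth conditions: 96-well plates. Treatment: test compound, 48 hours, 5 concentrations. Analysis: linear interpolation between bracketing concentrations; unreached endpoints set to highest concentration. GI50: concentration for 50% inhibition of growth. Definition used: TGI = concentration required for complete inhibition of growth.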

How the values were obtained:
Test in all cases: NCI anticancer screen, dose series, 48 h
SK-MEL-2 melanoma = test system: SK-MEL-2 melanoma
HCT-116 colon = test system: HCT-116 colon
MDA-MB-435 = test system: MDA-MB-435
MALME-3M melanoma = test system: MALME-3M melanoma
MDA-MB-231 breast = test system: MDA-MB-231 breast
M14 melanoma = test system: M14 melanoma
SK-MEL-28 melanoma = test system: SK-MEL-28 melanoma
UACC-257 melanoma = test system: UACC-257 melanoma

Structure (SMILES) | GI50 (SK-MEL-2 melanoma) [µM] | TGI (SK-MEL-2 melanoma) [µM] | GI50 (HCT-116 colon) [µM] | TGI (HCT-116 colon) [µM] | GI50 (MDA-MB-435) [µM] | TGI (MDA-MB-435) [µM] | GI50 (MALME-3M melanoma) [µM] | TGI (MALME-3M melanoma) [µM] | GI50 (MDA-MB-231 breast) [µM] | TGI (MDA-MB-231 breast) [µM] | GI50 (M14 melanoma) [µM] | TGI (M14 melanoma) [µM] | GI50 (SK-MEL-28 melanoma) [µM] | TGI (SK-MEL-28 melanoma) [µM] | GI50 (UACC-257 melanoma) [µM] | TGI (UACC-257 melanoma) [µM]
O=C(Nc1cccc(Cl)c1Cl)c1cccc(NC2=C(Cl)C(=O)N(Cc3ccccc3)C2=O)c1 | 16.9 | 58.6 | 22.1 | > 100 | 20.4 | 53.2 | > 100 | > 100 | 32.2 | > 100 | 35.8 | > 100 | > 100 | > 100 | 23.3 | 72.3
COc1ccc(/C=c2/sc3n(c2=O)C(c2ccc(OC)c(OC)c2)C2=C(N=3)c3cc(F)ccc3OC2)cc1 (stereo unspecified) | > 45.2 | > 92.4 | 17.4 | > 100 | 14.1 | 41.1 | – | – | 14.8 | > 75.1 | 36.9 | > 100 | 51.5 | > 96.6 | 35 | > 88.8
CC(=O)O[C@@H]1C[C@]2(C(C)C)O[C@@]1(C)[C@@H]1CCC(C)=C1[C@@H]2OC(=O)/C=C/c1ccccc1 | > 100 | > 100 | 16.4 | > 100 | 39.1 | > 100 | 39.2 | > 100 | 49.3 | > 100 | 40.1 | > 100 | 69.9 | > 100 | 27.8 | > 100
NC(N)=N/N=C/c1cc(Cl)cc(Cl)c1O | – | > 100 | – | > 100 | – | > 100 | – | > 100 | – | > 100 | – | > 100 | – | > 100 | – | > 100
NC(=O)C(=CNc1nc(-c2ccc(Cl)c(Cl)c2)cs1)C(N)=O | 75.6 | > 100 | > 100 | > 100 | 48.2 | > 100 | > 100 | > 100 | 60.8 | > 100 | > 100 | > 100 | > 100 | > 100 | > 100 | > 100
Cc1ccc(Nc2nc(N)c(C(=O)c3ccc(C#N)cc3)s2)cc1 | 0.435 | 46.1 | 0.241 | 6.74 | 0.0779 | – | 5.25 | > 100 | 1.01 | > 100 | 0.308 | > 100 | 18.9 | > 100 | 33.3 | > 100
COc1cc(/C=C2\C(=O)Nc3ccc(F)cc32)cc(OC)c1OC | 96.4 | > 100 | 21.2 | > 100 | 5.5 | > 100 | 29.6 | > 100 | 3.16 | 36.3 | 63.5 | > 100 | 56.7 | > 100 | 87.6 | > 100
O=C(O)c1cc(O)c2c(c1)C(C1c3cc(C(=O)O)cc(O)c3C(=O)c3c(OC4OC(CO)C(O)C(O)C4O)cccc31)c1cccc(OC3OC(CO)C(O)C(O)C3O)c1C2=O (stereo unspecified) | > 100 | > 100 | > 100 | > 100 | > 100 | > 100 | > 100 | > 100 | > 100 | > 100 | > 100 | > 100 | > 100 | > 100 | > 100 | > 100
Cc1n(Cc2ccc3ccccc3c2)cc[n+]1Cc1ccc2ccccc2c1 | – | – | 1.07 | 4.4 | 0.544 | 2.38 | 0.627 | 2.56 | 1.03 | 2.43 | 1.12 | 3.46 | 1.02 | 3.05 | 0.588 | 2.58
O=C(N/N=C\c1cc(Br)ccc1O)c1ccncc1 | 4.29 | > 100 | 1.8 | > 100 | 5.36 | > 100 | 5.76 | 78.5 | 5.88 | > 100 | 2.45 | 26 | 3.52 | > 100 | 2.33 | 15.9
c1ccc2c3ccn4cc5c(cc4c-3nc2c1)CCCC5 | 3.05 | 10.2 | 2.72 | 8.94 | 1.56 | 4.19 | – | – | 4.47 | 20.8 | – | 6.41 | 2.38 | 11.7 | 5.42 | 38.2
O=c1[nH]c2cc(Cl)ccc2n1C1CCN(CCCC(c2ccc(F)cc2)c2ccc(F)cc2)CC1 | 1.7 | 3.35 | 1.46 | 2.87 | 1.32 | 2.63 | 1.88 | 4.21 | 1.68 | 3.12 | 1.55 | 3.05 | 1.47 | 3.1 | 1.56 | 3.04
CN(C)Cc1c[nH]c2c1C(=O)c1c(c(O)c3ccccc3c1O)C2=O | – | – | 8.17 | 34.8 | 10.6 | 23 | 9.61 | 23.3 | 11.6 | 25 | 17.2 | 40.4 | 27.4 | 58 | 19.7 | 35.4
C#C[C@]1(O)CC[C@H]2[C@@H]3CC=C4c5sc(Nc6ccccc6)nc5CC[C@]4(C)[C@H]3CC[C@@]21C | 1.61 | 5.75 | – | – | 3 | 11.2 | 1.31 | 3.79 | 2.01 | 6.8 | 1.6 | 4.51 | 0.692 | 2.75 | 2.46 | 8.6
COC(COC(=O)N1CCN(C=O)CC1)C1=C(N2CC2)C(=O)C(C)=C(N2CC2)C1=O (stereo unspecified) | – | – | – | 1.55 | – | 0.976 | – | 1.53 | – | 8.16 | – | 1.34 | – | 3.33 | – | 1.9
COc1ccc(CNc2c3ccccc3nc3ccccc23)cc1OC | 2.28 | 6.4 | 0.944 | 10.9 | 2.93 | 10 | 1.95 | 4.98 | 2.37 | 7.32 | 1.97 | 4.76 | 3.14 | 10.8 | 2.73 | 8.22
COc1ccc(-c2cc(-c3cccn3C)c(C#N)c(N)n2)cc1OC | > 100 | > 100 | 91.1 | > 100 | > 100 | > 100 | > 100 | > 100 | 38.3 | > 100 | – | – | > 100 | > 100 | > 100 | > 100

Structure (SMILES) | GI50 (SK-MEL-2 melanoma) [µM] | TGI (SK-MEL-2 melanoma) [µM] | GI50 (HCT-116 colon) [µM] | TGI (HCT-116 colon) [µM] | GI50 (MDA-MB-435) [µM] | TGI (MDA-MB-435) [µM] | GI50 (MALME-3M melanoma) [µM] | TGI (MALME-3M melanoma) [µM] | GI50 (MDA-MB-231 breast) [µM] | TGI (MDA-MB-231 breast) [µM] | GI50 (M14 melanoma) [µM] | TGI (M14 melanoma) [µM] | GI50 (SK-MEL-28 melanoma) [µM] | TGI (SK-MEL-28 melanoma) [µM] | GI50 (UACC-257 melanoma) [µM] | TGI (UACC-257 melanoma) [µM]
CCN(CC)CC(C)(C)C(=O)/C=C/c1ccc(Cl)c(Cl)c1 | 2.5 | 4.63 | 1.79 | 3.2 | 1.6 | 3.28 | 1.8 | 3.61 | 2.06 | 4.26 | 1.66 | 3.39 | 1.57 | 3.08 | 2.07 | 3.64
O=C(CN(C1CCCCC1)C1CCCCC1)Nc1ccc(S(=O)(=O)c2ccc(NC(=O)CN(C3CCCCC3)C3CCCCC3)cc2)cc1 | 1.35 | 3.5 | 0.158 | 0.396 | 0.873 | 2.35 | 0.334 | 1.3 | 0.432 | 1.63 | 0.373 | 1.69 | 1.21 | 2.82 | 1.37 | 3.66
CCCS(=O)(=O)Nc1ccc(Nc2c3ccccc3nc3ccccc23)c(OC)c1 | – | 7.7 | – | 13.2 | – | 26.3 | – | 6.68 | – | 10.4 | – | 17.8 | – | 1.3 | – | 19.8
Cc1c[n+](Cc2ccc3ccccc3c2)cn1Cc1ccc2ccccc2c1 | 1.85 | 3.68 | 1.39 | 2.7 | 1.28 | 3.03 | 1.29 | 3.02 | 1.54 | 3.24 | 1.58 | 3.66 | 1.8 | 3.7 | 1.46 | 3.16
COc1ccccc1/C=C/c1cnccn1 | – | > 10 | – | > 10 | – | > 10 | – | > 10 | – | > 10 | – | > 10 | – | > 10 | – | > 10
Nc1nc(Nc2ccccc2)c2ncn(Cc3cc4c(cc3Br)OCO4)c2n1 | 0.0546 | 42.3 | 0.046 | 24.9 | 0.0301 | 0.129 | – | – | 0.0497 | > 51.9 | – | – | 0.524 | 36.2 | – | –
Nc1nc(Br)nc2c1ncn2C1CC(O)C(CO)O1 (stereo unspecified) | > 100 | > 100 | 2.76 | > 100 | 11.6 | > 100 | > 100 | > 100 | > 71.2 | > 100 | 1.1 | 8.56 | > 100 | > 100 | 27.3 | > 100
CCN1C(=O)N(CC)C2C1NC(=S)N2/N=C/C=C/c1cccs1 (stereo unspecified) | 0.529 | > 100 | 0.404 | > 100 | – | – | 0.485 | > 100 | 0.648 | > 100 | 0.241 | 17.6 | – | > 100 | – | > 100
O=C1c2ccn(CCCCNC(CO)(CO)CO)c2C(=O)c2c1c(O)c1ccccc1c2O | 31.6 | > 100 | 0.436 | 0.857 | 0.992 | 2.42 | – | – | 0.457 | 2.26 | 1.86 | 3.59 | 6.44 | > 43.6 | 7.71 | 24.6
CC(=O)Oc1ccccc1C(=O)N=C1[Se]CCN1C(=O)c1ccccc1OC(C)=O | 1.42 | 3.91 | 0.32 | 1.15 | 0.462 | 1.87 | 0.38 | 1.45 | 0.472 | 3.06 | 0.523 | 2.2 | 0.492 | 3.25 | 1.02 | 3.2
C#CC(=O)Nc1cccc(Nc2nc3c(c(NCc4ccccc4)n2)CCCC3)c1 | 0.543 | 1.98 | 0.12 | 0.291 | 1.02 | 2.24 | – | – | – | – | 0.261 | 1.22 | 1.49 | 2.97 | – | –
CC(=O)c1c(CBr)n([O-])c2ccccc2[n+]1=O | 14.4 | 30 | 1.36 | 2.89 | 12.5 | 25.6 | 4.48 | 17.4 | 12.2 | 25 | 12.1 | 25.6 | 13 | 27.7 | 16.7 | 32.9
CSC1(CC(=O)N(C)C)C(=O)Nc2ccccc21 (stereo unspecified) | – | > 100 | – | > 100 | – | > 100 | – | > 100 | – | – | – | > 100 | – | > 100 | – | > 100
O/N=C\c1c(O)ccc2ccccc12 | – | – | – | > 100 | – | > 100 | – | 75.5 | – | > 100 | – | > 100 | – | > 100 | – | > 100
Cc1c(C2Nc3ccccc3C2C)[nH]c2ccccc12 (stereo unspecified) | – | – | 0.83 | 23.5 | 10.6 | 24.6 | 10.6 | 24.8 | 5.37 | 21.4 | 15.3 | 38.7 | 12 | 26.2 | 12.4 | 28.3
Cc1cn2c(/C=C3/C(=O)Nc4ccccc43)c(-c3ccc(Cl)cc3)nc2s1 | 30.8 | > 50 | – | – | 8.07 | 14.8 | – | – | 2.34 | 9.45 | 8.39 | 15.2 | – | – | 10.5 | 27.8
CC(=O)Oc1ccccc1C(=O)N=C1[Se]CCCN1C(=O)c1ccccc1OC(C)=O | 2.38 | 5.09 | 2.1 | 5.95 | 1.98 | 4.76 | 2.31 | 4.9 | 2.22 | 5.02 | 1.86 | 4.68 | 2.36 | 5.74 | – | –
